Data from patent US8057992B2, “Methods for identifying peptides that bind to intact oocytes” (Auburn University, priority 2007, dated 2011).
“Also recorded” adds a separate entry of the source. Ends that are not written are not given here.

Columns and labels:
[1] = system: ZP proteins on intact canine oocytes; experiment: Phage display selection of ZP-binding peptides on intact canine oocytes; conditions: four rounds of selection, 1000 intact canine oocytes per round, 7-mer and 12-mer phage display libraries
Protocol: The phage display procedure developed herein utilizes intact oocytes surrounded by ZP proteins. In this procedure, ZP proteins remain on oocytes in their native conformation, unlike previously published selection protocols that use denatured ZPs immobilized on an artificial solid support. The procedure involves incubating isolated oocytes with a phage display library followed by washing of unbound phage. Oocytes are lysed, and bound phage are amplified in bacterial cultures. Enrichment in ZP-binding phage clones is achieved in four subsequent selection rounds, after which selected phage DNAs are sequenced and translated to obtain peptide sequences.
Collection of dog ova: Oocytes were isolated from dog ovaries obtained from spay/neuter clinics. All ovaries were collected from bitches (six months of age and older) undergoing elective ovariohysterectomy. Approximately 20-30 oocytes from each pair of ovaries were isolated. Ova were washed extensively, retrieved by visual inspection at 12× magnification, washed two additional times, pooled and frozen before the use. Oocytes isolated from dog ovaries were characterized by microscopic evaluations.
Identification of peptides that bind to ZP proteins on intact canine oocytes: Peptides that specifically bind to ZP proteins were identified by utilizing two phage display libraries purchased from New England BioLabs, including: PhD-C7C Peptide 7-mer Library Kit and PhD-12 Peptide Library Kit. The utilized approach selects peptides that mimic the sperm antigen at the level of the ZP-sperm binding (FIG. 2).
Four rounds of selection were performed using each library. For each selection round, an aliquot of the primary library was diluted in a blocking buffer and incubated with 1000 intact canine oocytes surrounded by ZP. After incubation, phages expressing peptides not bound to oocytes were washed away and the bound phages were recovered by lysis. […] Peptide sequences from phage display selection on intact dog oocytes surrounded by ZP included: LNSFLRS (SEQ ID NO:1), LSTALRS (SEQ ID NO:2), SSWYRGA (SEQ ID NO:3), TGTSTRA (SEQ ID NO:4), YLPIYTIPSMVY (SEQ ID NO:5), NNQSPILKLSIH (SEQ ID NO:6), and AHPNTAPIHPKF (SEQ ID NO:7). Based on the peptide sequences, the following five antigens were prepared: antigen 1—YLPVGGLRRIGG (SEQ ID NO:14), antigen 2—CLNSFLRSC-KGG (SEQ ID NO:9), antigen 3—YLPIYTIPSMVY-GG (SEQ ID NO:12), antigen 4—NNQSPILKLSIH-GG (SEQ ID NO:13), and antigen 5—CSSWYRGAC-KGGY (SEQ ID NO:11).

dogs = experiment: Peptide ELISA of serum from immunized dogs for anti-peptide antibodies; assay type: in vivo, dog
Protocol: Immunization of dogs with ZP-binding peptides conjugated to a carrier protein: The peptides were synthesized by Global Peptide Services (Fort Collins, Colo.) at a yield of 10-20 mg having 95% purity. Two of the selected peptides were 7 amino acids long and the other two were 12 amino acids long. Antigen was taken from the literature (6) to serve as a control. To assure maximum immunogenicity, the peptides were conjugated to keyhole-limpet hemocyanin (KLH), a carrier protein. For vaccinations, the antigen was formulated to include: 250 μg of KLH conjugated peptide mixed with aluminum hydroxide adjuvant (Alhydrogel 85) and 100 μg canine specific immunostimulatory oligodeoxynucleotide (CpG). Four of the selected peptides and one control peptide were injected intramusculary into each dog (one dog/peptide). Booster immunizations were given twice to achieve high titer antisera. Each immunized dog served as his/her own control since none were expected to have preexisting antibodies to the selected peptides.
Evaluation of serum collected from immunized dogs for anti-ZP-binding peptide antibodies: Serum samples were collected from all dogs prior to immunization and biweekly or monthly thereafter during a 12-month period. The samples were tested for the presence of anti-peptide antibodies in a peptide ELISA format. […] The immunization scheme was as described above.

canine sperm cells = experiment: Sperm cell ELISA of serum from dogs immunized with antigen 4; assay type: in vivo; conditions: three dogs immunized with antigen 4; sperm cell ELISA at serum dilution 1:50 (FIG. 5)

Row | Substance | binding to ZP (peptide sequences of phage selected on intact dog oocytes) [1] | also measured
1 | NNQSPILKLSIH (Phage library random peptide insert) [SEQ ID NO:6] | responsible for binding to ZP | –
2 | LSTALRS (Phage library random peptide insert) [SEQ ID NO:2] | responsible for binding to ZP | –
3 | AHPNTAPIHPKF (Phage library random peptide insert) [SEQ ID NO:7] | responsible for binding to ZP | –
4 | TGTSTRA (Phage library random peptide insert) [SEQ ID NO:4] | responsible for binding to ZP | –
5 | LNSFLRS (Phage library random peptide insert) [SEQ ID NO:1] | responsible for binding to ZP | –
6 | YLPIYTIPSMVY (Phage library random peptide insert) [SEQ ID NO:5] | responsible for binding to ZP | –
7 | SSWYRGA (Phage library random peptide insert) [SEQ ID NO:3] | responsible for binding to ZP | –
8 | NNQSPILKLSIH-GG (NNQSPILKLSIHGG; also: conjugated to carrier protein) [antigen 4] | – | immunogenicity: anti-peptide antibody levels in serum (dogs; one dog per antigen, 250 μg KLH conjugated peptide with aluminum hydroxide adjuvant and CpG, intramuscular, two boosts, peptide ELISA at serum dilution 1:6400 (FIG. 3)): specific anti-peptide antibodies at high levels; also recorded: high immunogenic properties; titers of anti-peptide antibodies (dogs; three additional dogs, same immunization scheme, peptide ELISA at serum dilution 1:6400 (FIG. 4)): high titers of anti-peptide antibodies; binding of raised antibodies to canine sperm cells (anti-sperm antibody levels) (canine sperm cells): bind to canine sperm cells
